Source: patent US20250129095A1, “ANNULATED 2-AMINO-3-CYANO THIOPHENES AND DERIVATIVES FOR THE TREATMENT OF CANCER” (Boehringer Ingelheim Int'l GmbH Corp., priority 2021, published 2025)

Tests used:
KRAS G12V Ba/F3 = KRAS G12V Ba/F3 (Homo sapiens, UniProt P01116, G12V, cells depend on it); assay: Ba/F3 proliferation assay, KRAS G12V; assay type: cell-based; settings: 72 h, AlamarBlue, read-out: KRAS G12V Ba/F3 IC50
Procedure: Plasmids containing KRASG12 mutants(i.e. G12D, G12C, G12V) are obtained from GeneScript. To generate KRASG12-dependent Ba/F3 models, Ba/F3 cells are transduced with retroviruses containing vectors that harbor KRASG12 isoforms. Platinum-E cells (Cell Biolabs) are used for retrovirus packaging. Retrovirus is added to Ba/F3 cells. To ensure infection, 4 μg/mL polybrene is added and cells are spinfected. […] Cells with an infection efficiency of 10% to 20% are further cultivated and puromycin selection with 1 μg/mL is initiated. As a control, parental Ba/F3 cells are used to show selection status. Selection is considered successful when parental Ba/F3 cells cultures died. To evaluate the transforming potential of KRASG12 mutations, the growth medium is no longer supplemented with IL-3. Ba/F3 cells harboring the empty vector are used as a control. Approximately ten days before conducting the experiments, puromycin is left out.
Compounds are added using an Access Labcyte Workstation with a Labcyte Echo 550 or 555 accoustic dispenser. All treatments are performed in technical duplicates. […] AlamarBlue™ (ThermoFisher), a viability stain, is added and fluorescence measured in the PerkinElmer Envision HTS Multilabel Reader. The raw data are imported into and analyzed with the Boehringer Ingelheim proprietary software MegaLab (curve fitting based on the program PRISM, GraphPad Inc.).

KRAS (G12D)::SOS1 = molecular target: T1, KRAS (G12D)::SOS1 (Homo sapiens, UniProt P01116, G12D); assay: KRAS::SOS1 AlphaScreen binding assay, KRAS G12D; settings: read-out: KRASG12D IC50
T1 construct: KRAS (G12D) 1-169, N-terminal 6His-tag, C-terminal avi-tag; 6His-tag (N); purchased Xtal BioStructures, Inc. (KRAS); Viva Biotech Ltd (SOS1)
Excerpt: This assay can be used to examine the potency with which compounds according to the invention binding to (mutated) KRAS inhibit the protein-protein interaction between SOS1 and (mutated) KRAS e.g., KRAS WT, KRAS G12C, KRAS G12D, KRAS G12V, KRAS G13D. […] Low IC50 values in this assay setting are indicative of strong inhibition of protein-protein interaction between SOS1 and KRAS:
These assays measure the inhibitory effect of compounds on KRAS mutant protein-protein interactions using the Alpha Screen technology by Perkin Elmer
The following (mutant) enzyme forms of KRAS and interacting proteins are used in these assays at the given concentrations: • KRAS (G12D) 1-169, N-terminal 6His-tag, C-terminal avi-tag (Xtal BioStructures, Inc.); final assay concentration 10 nM and SOS1 564-1049, N-terminal 229 GST-tag, TEV cleavage site (Viva Biotech Ltd); final assay concentration 5 nM; • KRAS (G12C) 1-169, N-terminal 6His-tag for purification, cleaved off, C-terminal avi-tag, biotinylated, mutations: C51S, C80L, C118S (in house); final assay concentration 7.5 nM and SOS1 564-1049, N-terminal 229 GST-tag, TEV cleavage site (Viva Biotech Ltd); final assay concentration 5 nM; • KRAS (G12V) 1-169, N-terminal 6His-tag for purification, cleaved off, C-terminal avi-tag, biotinylated, TEV cleavage site, mutation: C118S, GDP loaded (in house); final assay concentration 10 nM and SOS1 564-1049, N-terminal 229 GST-tag, TEV cleavage site (Viva Biotech Ltd); final assay concentration 10 nM; • KRAS (G13D) 1-169, N-terminal 6His-tag for purification, cleaved off, C-terminal avi-tag, biotinylated, TEV cleavage site, mutation: C118S, GDP loaded (in house); final assay concentration 10 nM and SOS1 564-1049, N-terminal 229 GST-tag, TEV cleavage site (Viva Biotech Ltd); final assay concentration 10 nM; • KRAS (WT) 1-169, N-terminal 6His-tag for purification, cleaved off, C-terminal avi-tag, biotinylated, TEV cleavage site, mutation: C118S, GDP loaded (in house); final assay concentration 10 nM and SOS1 564-1049, N-terminal 229 GST-tag, TEV cleavage site (Viva Biotech Ltd); final assay concentration 10 nM.
Test compounds dissolved in DMSO are dispensed onto assay plates (Proxiplate 384 PLUS, white, PerkinElmer; 6008289) using an Access Labcyte Workstation with the Labcyte Echo 55×. For the chosen highest assay concentration of 100 μM, 150 nL of compound solution are transferred from a 10 mM DMSO compound stock solution. A series of eleven fivefold dilutions per compound are transferred to the assay plate, compound dilutions are tested in duplicates. DMSO are added as backfill to a total volume of 150 nL.
The assays run on a fully automated robotic system in a darkened room below 100 Lux. To 150 nl of compound dilution 10 μl of a mix including KRAS mutant protein, SOS1 (final assay concentrations see above) and GDP nucleotide (Sigma G7127; final assay concentration 10 μM) in assay buffer (1×PBS, 0.1% BSA, 0.05% Tween 20) are added into columns 1-24.
After 30 minutes incubation time 5 μl of Alpha Screen bead mix in assay buffer are added into columns 1-23. Bead mix consists of AlphaLISA Glutathione Acceptor Beads (PerkinElmer, Cat No AL109) and AlphaScreen Streptavidin Donor Beads (PerkinElmer Cat No 6760002) in assay buffer at a final assay concentration of 10 μg/ml each.
Plates are kept at room temperature in a darkened incubator. After an additional 60 minutes incubation time the signal is measured in a PerkinElmer Envision HTS Multilabel Reader using the AlphaScreen specs from PerkinElmer.
Each plate contains up to 16 wells of a negative control depending on the dilution procedure (platewise or serial) (DMSO instead of test compound; with KRAS mutant::SOS1 GDP mix and bead mix; column 23) and 16wells of a positive control (DMSO instead of test compound; with KRAS mutant::SOS1 GDP mix w/o bead mix; column 24).
As internal control known inhibitors of KRAS mutant::SOS1 interaction can be measured on each compound plate. […]

Sequence of KRAS G12V Ba/F3 (P01116 whole entry G12V, canonical isoform): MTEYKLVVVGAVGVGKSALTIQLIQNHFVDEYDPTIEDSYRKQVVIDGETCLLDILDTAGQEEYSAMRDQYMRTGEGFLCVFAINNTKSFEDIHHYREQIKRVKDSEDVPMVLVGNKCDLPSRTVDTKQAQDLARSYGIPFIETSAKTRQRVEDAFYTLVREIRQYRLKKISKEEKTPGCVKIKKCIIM
T1 sequence (P01116 1-169 isoform P01116-2 G12D): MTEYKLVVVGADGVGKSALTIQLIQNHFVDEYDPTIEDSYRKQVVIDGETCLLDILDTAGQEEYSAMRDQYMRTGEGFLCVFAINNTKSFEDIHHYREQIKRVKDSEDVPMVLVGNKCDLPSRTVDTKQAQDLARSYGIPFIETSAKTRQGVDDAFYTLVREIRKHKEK

Compound | GI50 (KRAS G12V Ba/F3) | IC50 (KRAS (G12D)::SOS1)
C[C@H](Oc1cc(O[C@H]2CNC(C)(C)C2)nc(-c2noc3c2CCC[C@@]32CCCc3sc(N)c(C#N)c32)n1)[C@@H]1CCCN1C (single isomer, unassigned) [II-8] | 869 nM | 1 nM
C[C@H](Oc1cc(Oc2nccs2)nc(-c2onc3c2CCC[C@@]32CCCc3sc(N)c(C#N)c32)n1)[C@@H]1CCCN1C [Example I-1] | 3 nM | 2 nM
C[C@H](Oc1cc(Oc2cccnc2)nc(-c2onc3c2CCC[C@@]32CCCc3sc(N)c(C#N)c32)n1)[C@@H]1CCCN1C [Example I-2] | 2 nM | 1 nM
C[C@H](Oc1cc(Oc2cncnc2)nc(-c2onc3c2CCC[C@@]32CCCc3sc(N)c(C#N)c32)n1)[C@@H]1CCCN1C [Example I-3] | 2 nM | 1 nM
C[C@H](Oc1cc(N[C@H]2CCOC2)nc(-c2onc3c2CCC[C@@]32CCCc3sc(N)c(C#N)c32)n1)[C@@H]1CCCN1C [Example I-4] | 46 nM | 4 nM
COC[C@H](C)Nc1cc(O[C@@H](C)[C@@H]2CCCN2C)nc(-c2onc3c2CCC[C@@]32CCCc3sc(N)c(C#N)c32)n1 [Example I-5] | 67 nM | 12 nM
C[C@H](Oc1cc(Nc2ccccn2)nc(-c2onc3c2CCC[C@@]32CCCc3sc(N)c(C#N)c32)n1)[C@@H]1CCCN1C [Example I-6] | 14 nM | 4 nM
C[C@H](Oc1cc(Sc2ncccn2)nc(-c2onc3c2CCC[C@@]32CCCc3sc(N)c(C#N)c32)n1)[C@@H]1CCCN1C [Example I-7] | 31 nM | 6 nM
C[C@H](Oc1cc(OCC2(N(C)C)COC2)nc(-c2onc3c2CCC[C@@]32CCCc3sc(N)c(C#N)c32)n1)[C@@H]1CCCN1C [Example I-8] | 85 nM | 2 nM
C[C@H](Oc1cc(Oc2cncnc2)nc(-c2noc3c2CCC[C@@]32CCCc3sc(N)c(C#N)c32)n1)[C@@H]1CCCN1C [II-1] | 4 nM | 1 nM
C[C@H](Oc1cc(Oc2nccs2)nc(-c2noc3c2CCC[C@@]32CCCc3sc(N)c(C#N)c32)n1)[C@@H]1CCCN1C [II-2] | 4 nM | 2 nM
C[C@H](Oc1cc(Oc2ccon2)nc(-c2noc3c2CCC[C@@]32CCCc3sc(N)c(C#N)c32)n1)[C@@H]1CCCN1C [II-3] | 9 nM | 2 nM
C[C@H](Oc1cc(O[C@H]2CCOC2)nc(-c2noc3c2CCC[C@@]32CCCc3sc(N)c(C#N)c32)n1)[C@@H]1CCCN1C [II-4] | 6 nM | 2 nM
COCCOc1cc(O[C@@H](C)[C@@H]2CCCN2C)nc(-c2noc3c2CCC[C@@]32CCCc3sc(N)c(C#N)c32)n1 [II-5] | 7 nM | 1 nM
C[C@H](Oc1cc(OCCO)nc(-c2noc3c2CCC[C@@]32CCCc3sc(N)c(C#N)c32)n1)[C@@H]1CCCN1C [II-6] | 7 nM | 1 nM
C[C@H](Oc1cc(Oc2cnccn2)nc(-c2noc3c2CCC[C@@]32CCCc3sc(N)c(C#N)c32)n1)[C@@H]1CCCN1C [II-7] | 3 nM | 1 nM

Compound | GI50 (KRAS G12V Ba/F3) | IC50 (KRAS (G12D)::SOS1)
C[C@H](Oc1cc(O[C@@H]2CNC2(C)C)nc(-c2noc3c2CCC[C@@]32CCCc3sc(N)c(C#N)c32)n1)[C@@H]1CCCN1C [II-9] | 161 nM | 1 nM
C[C@H](Oc1cc(N(C)C)nc(-c2noc3c2CCC[C@@]32CCCc3sc(N)c(C#N)c32)n1)[C@@H]1CCCN1C [II-10] | 43 nM | 2 nM
C[C@H](Oc1cc(NCC2COC2)nc(-c2noc3c2CCC[C@@]32CCCc3sc(N)c(C#N)c32)n1)[C@@H]1CCCN1C [II-11] | 29 nM | 1 nM
C[C@H](Oc1cc(Nc2nccs2)nc(-c2noc3c2CCC[C@@]32CCCc3sc(N)c(C#N)c32)n1)[C@@H]1CCCN1C [II-12] | 11 nM | 6 nM
C[C@H](Oc1cc(Nc2ncco2)nc(-c2noc3c2CCC[C@@]32CCCc3sc(N)c(C#N)c32)n1)[C@@H]1CCCN1C [II-13] | 10 nM | 2 nM
C[C@H](Oc1cc(Nc2cnccn2)nc(-c2noc3c2CCC[C@@]32CCCc3sc(N)c(C#N)c32)n1)[C@@H]1CCCN1C [II-14] | 7 nM | 3 nM
C[C@H](Oc1cc(Nc2ccncn2)nc(-c2noc3c2CCC[C@@]32CCCc3sc(N)c(C#N)c32)n1)[C@@H]1CCCN1C [II-15] | 12 nM | 3 nM
C[C@H](Oc1cc(Nc2ccccn2)nc(-c2noc3c2CCC[C@@]32CCCc3sc(N)c(C#N)c32)n1)[C@@H]1CCCN1C [II-16] | 11 nM | 3 nM
C[C@H](Oc1cc(Nc2ncccn2)nc(-c2noc3c2CCC[C@@]32CCCc3sc(N)c(C#N)c32)n1)[C@@H]1CCCN1C [II-17] | 10 nM | 2 nM
C[C@H](Oc1cc(Nc2cccnn2)nc(-c2noc3c2CCC[C@@]32CCCc3sc(N)c(C#N)c32)n1)[C@@H]1CCCN1C [II-18] | 11 nM | 2 nM
C[C@H](Oc1cc(O[C@H]2CN(C)C(C)(C)C2)nc(-c2noc3c2CCC[C@@]32CCCc3sc(N)c(C#N)c32)n1)[C@@H]1CCCN1C [II-19] | 151 nM | 1 nM
C[C@H](Oc1cc(N(C)CCN(C)C)nc(-c2noc3c2CCC[C@@]32CCCc3sc(N)c(C#N)c32)n1)[C@@H]1CCCN1C [II-20] | 303 nM | 2 nM
C[C@H](Oc1cc(OCC2(N(C)C)CC2)nc(-c2noc3c2CCC[C@@]32CCCc3sc(N)c(C#N)c32)n1)[C@@H]1CCCN1C [II-21] | 237 nM | 1 nM
C[C@H](Oc1cc(OCC2(N(C)C)COC2)nc(-c2noc3c2CCC[C@@]32CCCc3sc(N)c(C#N)c32)n1)[C@@H]1CCCN1C [II-22] | 35 nM | 1 nM
COc1c(OCC2(N(C)C)COC2)nc(-c2noc3c2CCC[C@@]32CCCc3sc(N)c(C#N)c32)nc1O[C@@H](C)[C@@H]1CCCN1C [II-25] | 137 nM | 1 nM
C[C@H]1CN(C)CCCN1c1cc(O[C@@H]2CNC2(C)C)nc(-c2noc3c2CCC[C@@]32CCCc3sc(N)c(C#N)c32)n1 [II-28] | 2040 nM | 1 nM
